Test results taken from article PMC12096834, “Antimicrobial peptide plectasin recombinantly produced in Escherichia coli disintegrates cell walls of gram-positive bacteria, as proven by transmission electron and atomic force microscopy” (Journal of Bacteriology, 2025).

Key:
Experiment in all cases: AFM cell thickness, stiffness and roughness
Type in all cases: cell-based
Staphylococcus aureus = settings: plectasin 4 x MIC, CASPON-plectasin same molar quantity, mean ± SD of 20 measurements; for Stiffness: AFM force spectroscopy, untreated 5.3 ± 2.3
Experimental: (§1) All AFM measurements were performed on a Vecoo-Bruker AFM (Diamond, Chilton, UK), including imaging and force distance measurement. Before and after measurements, the triangular cantilever was cleaned with EtOH and acetone. Sensitivity and the spring constant were calibrated by the thermal tune method by making use of the equipartition theorem, preceded by continued ramping. After calibration, the spring constant was set to 0.4017 N/m for performing measurements.
(§2) Bacterial suspensions were prepared by taking bacterial colonies out of overnight grown agar plates and resuspending them in MHB. The suspension was set to an OD625 extinction of 0.15–0.20 corresponding to a bacterial cell density of approximately 2 × 10^8 CFU/mL. Then, 3 × 1 mL of suspension was transferred into a 2-mL reaction tube and mixed with either plectasin, CASPON-plectasin, or PBS buffer to obtain volume conditions. The concentration for plectasin was 4 x MIC, and CASPON-plectasin was of the same molar quantity as plectasin. After incubation, the bacterial suspensions were washed with PBS three times, using mild centrifugation conditions for each wash cycle (3,000 g, 15 minutes) to avoid cell damage. The washed bacterial suspension was transferred to borosilicate glass slides (24 mm diameter, 0.1 mm thickness, Menzel Gläser, Braunschweig, Germany) and left to adhere to the surface (electrostatics) for 1 hour. Afterward, the slides were washed with MilliQ water and transferred to AFM.
(§3) Bacterial images were visualized by square areas of 2 × 2 µm^2 up to 25 × 25 µm^2 with a resolution of 512 × 512 pixels. At least 15 images were taken per sample with different square dimensions for proper visualization. Surface roughness and shapes of the bacterial cell were estimated using Gwyddion software after applying a mean filter to the raw images. A total of 20 measurements were taken on cells for each parameter, providing enough values for statistical evaluation. For additional information and an illustration of the determination principle, please refer to the supplementary material (Fig. S3), which includes an example on S. aureus. By using the following equations, the surface roughness of a selected area of this flattened area was calculated from the standard deviation in the height image. The mean roughness (Ra) and the root-mean-square roughness (Rq or RMS) were used to characterize the surface of different samples:
(§4) After the position of the bacteria was determined, force spectroscopy was performed. Measurement of the central region of bacteria was performed with an approach speed of 10 µm/s and a maximum force of 2 nN. A curve length of 1 µm and a sampling rate of 2 kHz were used. At least 20 bacteria per sample were measured. Analysis of the force distance curves was performed using the software NanoScope Analysis 1.5. For calculating the stiffness of each bacterial cell, the following question was utilized:
(§5) where keff is the effective stiffness (received from the slope of the measured curve), ksample is the stiffness of the sample (bacterial cell), and kspring is the spring constant (0.4017 N/m). All constants have the unit N/m. Rearrangement of the formula leads to the following relation: […]
(§6) Measurements were pooled, and properties were calculated as described above. For each parameter, 20 measurements were used to obtain appropriate statistical values. Analysis of variance (ANOVA) was performed, followed by Student’s t-test, which is a statistical procedure that compares the averages of two independent groups (plectasin/CASPON-plectasin treated vs untreated) to determine significance in the surface roughness and stiffness of bacteria. Significances are indicated in figures and reported as “ns” for P > 0.05, “*” for P ≤ 0.05, “**” for P ≤ 0.01, and “***” for P ≤ 0.001.

Streptococcus pneumoniae = settings: plectasin 4 x MIC, CASPON-plectasin same molar quantity, mean ± SD of 20 measurements; for Stiffness: AFM force spectroscopy, untreated 6.2 ± 2.4
Experimental: as §1, §2, §3, §4, §5, §6

Enterococcus faecalis = settings: plectasin 4 x MIC, CASPON-plectasin same molar quantity, mean ± SD of 20 measurements; for Stiffness: AFM force spectroscopy, untreated 8.0 ± 3.7
Experimental: as §1, §2, §3, §4, §5, §6

Listeria monocytogenes = settings: plectasin 4 x MIC, CASPON-plectasin same molar quantity, mean ± SD of 20 measurements; for Stiffness: AFM force spectroscopy, untreated 5.4 ± 3.1
Experimental: as §1, §2, §3, §4, §5, §6

SMILES: CC[C@H](C)[C@@H]1NC(=O)[C@H](CO)NC(=O)[C@H](CCCCN)NC(=O)[C@@H]2CSSC[C@@H](C(=O)N[C@@H](Cc3ccc(O)cc3)C(=O)O)NC(=O)[C@H](CCCCN)NC(=O)[C@@H]3CSSC[C@H](NC(=O)[C@H](CCC(N)=O)NC(=O)[C@H](CCSC)NC(=O)[C@H](CC(=O)O)NC(=O)[C@H](CC(=O)O)NC(=O)[C@H](CCC(=O)O)NC(=O)[C@H](CC(=O)O)NC(=O)[C@H](Cc4c[nH]c5ccccc45)NC(=O)[C@@H]4CCCN4C(=O)CNC(=O)[C@H](CC(N)=O)NC(=O)[C@@H](NC(=O)CNC(=O)[C@H](Cc4ccccc4)NC(=O)CN)CSSC[C@H](NC(=O)[C@H](Cc4ccc(O)cc4)NC(=O)CNC(=O)CNC(=O)[C@H](CCCCN)NC(=O)[C@H](Cc4ccc(O)cc4)NC(=O)CNC(=O)[C@H](CCCCN)NC1=O)C(=O)N[C@@H](C)C(=O)N[C@@H](CCCCN)C(=O)NCC(=O)NCC(=O)N[C@@H](Cc1ccccc1)C(=O)N[C@@H](C(C)C)C(=O)N3)C(=O)N[C@@H](Cc1c[nH]cn1)C(=O)N[C@@H](CC(N)=O)C(=O)N[C@@H](Cc1c[nH]cn1)C(=O)N2 [Plectasin, plectasin]
- Stiffness (Staphylococcus aureus): approximately 4 N/m
- Stiffness (Staphylococcus aureus; SD): 3.7 ± 1.7 N/m
- Ra (mean roughness) (Staphylococcus aureus; AFM, untreated 19.4 ± 3.5, SD): 24.76 ± 6.7 nm
- Rq (root-mean-square roughness) (Staphylococcus aureus; AFM, untreated 24.0 ± 4.4, SD): 30.9 ± 8.0 nm
- Cell thickness (Staphylococcus aureus; AFM, untreated 485.9 ± 26.5, SD): 467.2 ± 45.1 nm
- Stiffness (Streptococcus pneumoniae): approximately 4 N/m
- Stiffness (Streptococcus pneumoniae; SD): 4.7 ± 1.1 N/m
- Ra (mean roughness) (Streptococcus pneumoniae; AFM, untreated 15.5 ± 4.2, SD): 19.7 ± 5.3 nm
- Rq (root-mean-square roughness) (Streptococcus pneumoniae; AFM, untreated 18.8 ± 4.8, SD): 24.5 ± 6.0 nm
- Cell thickness (Streptococcus pneumoniae; AFM, untreated 375.8 ± 28.4, SD): 366.0 ± 54.1 nm
- Stiffness (Enterococcus faecalis): approximately 4 N/m
- Stiffness (Enterococcus faecalis; SD): 4.6 ± 1.9 N/m
- Ra (mean roughness) (Enterococcus faecalis; AFM, untreated 10.0 ± 2.5, SD): 19.4 ± 3.2 nm
- Rq (root-mean-square roughness) (Enterococcus faecalis; AFM, untreated 12.2 ± 3.4, SD): 23.5 ± 3.4 nm
- Cell thickness (Enterococcus faecalis; AFM, untreated 480.3 ± 30.6, SD): 473.5 ± 47.5 nm
- Stiffness (Listeria monocytogenes): approximately 4 N/m
- Stiffness (Listeria monocytogenes; SD): 3.5 ± 1.4 N/m
- Ra (mean roughness) (Listeria monocytogenes; AFM, untreated 8.1 ± 2.5, SD): 13.5 ± 2.4 nm
- Rq (root-mean-square roughness) (Listeria monocytogenes; AFM, untreated 11.2 ± 3.4, SD): 16.9 ± 2.8 nm
- Cell thickness (Listeria monocytogenes; AFM, untreated 297.0 ± 13.3, SD): 297.8 ± 14.0 nm
